Results from the NIST ThermoML archive (doi:10.1016/j.tca.2014.02.019).
Numbers after ± are expanded uncertainties.

Experiment: xn = mol fraction of the nth substance listed
Details: 101 kPa, Liquid; for viscosity: Falling or rolling sphere viscometry; for mass density: Vibrating tube method

CCOS(=O)(=O)[O-].CC[N+]1(C)CCCCC1 [1-ethyl-1-methylpiperidinium ethyl sulfate] + O
Details	mass density [kg/m3]	viscosity [mPa·s]
298.15 K, x1 = 0.106	1113.1 ± 0.3	7.436 ± 1.2
298.15 K, x1 = 0.1407	1128.31 ± 0.25	11.14 ± 1.8
298.15 K, x1 = 0.2161	1148.02 ± 0.29	22.79 ± 3.6
298.15 K, x1 = 0.2643	1155.38 ± 0.33	31.79 ± 5.1
298.15 K, x1 = 0.3605	1164.49 ± 0.46	54.56 ± 8.7
298.15 K, x1 = 0.4662	1170.4 ± 0.67	96.57 ± 16
298.15 K, x1 = 0.5583	1173.75 ± 0.92	159.1 ± 26
298.15 K, x1 = 0.6591	1176.55 ± 1.2	276.5 ± 47
298.15 K, x1 = 0.7296	1177.92 ± 1.5	419.2 ± 73
298.15 K, x1 = 0.8133	1179.24 ± 1.8	690.5 ± 120
298.15 K, x1 = 1	1181.33 ± 2.7	1821 ± 360
303.15 K, x1 = 0.106	1109.81 ± 0.3	6.222 ± 1
303.15 K, x1 = 0.1407	1124.96 ± 0.25	9.197 ± 1.5
303.15 K, x1 = 0.2161	1144.56 ± 0.29	18.22 ± 2.9
303.15 K, x1 = 0.2643	1152 ± 0.33	25.04 ± 4
303.15 K, x1 = 0.3605	1161.22 ± 0.45	42.54 ± 6.8
303.15 K, x1 = 0.4662	1167.23 ± 0.67	74.01 ± 12
303.15 K, x1 = 0.5583	1170.68 ± 0.91	119.5 ± 19
303.15 K, x1 = 0.6591	1173.32 ± 1.2	202.2 ± 34
303.15 K, x1 = 0.7296	1174.77 ± 1.5	296.9 ± 50
303.15 K, x1 = 0.8133	1176.06 ± 1.8	473.2 ± 83
303.15 K, x1 = 1	1178.23 ± 2.7	1186 ± 220
308.15 K, x1 = 0.106	1106.45 ± 0.3	5.272 ± 0.84
308.15 K, x1 = 0.1407	1121.5 ± 0.25	7.687 ± 1.2
308.15 K, x1 = 0.2161	1141.12 ± 0.29	14.99 ± 2.4
308.15 K, x1 = 0.2643	1148.59 ± 0.33	20.4 ± 3.3
308.15 K, x1 = 0.3605	1157.92 ± 0.45	33.84 ± 5.4
308.15 K, x1 = 0.4662	1164.02 ± 0.66	57.65 ± 9.2
308.15 K, x1 = 0.5583	1167.53 ± 0.9	91.73 ± 15
308.15 K, x1 = 0.6591	1170.15 ± 1.2	150.9 ± 25
308.15 K, x1 = 0.7296	1171.56 ± 1.5	218.5 ± 36
308.15 K, x1 = 0.8133	1172.89 ± 1.8	333.5 ± 57
308.15 K, x1 = 1	1175.1 ± 2.7	795.7 ± 140
313.15 K, x1 = 0.106	1103.05 ± 0.29	4.518 ± 0.72
313.15 K, x1 = 0.1407	1118.01 ± 0.25	6.508 ± 1
313.15 K, x1 = 0.2161	1137.63 ± 0.29	12.34 ± 2
313.15 K, x1 = 0.2643	1145.18 ± 0.33	16.7 ± 2.7
313.15 K, x1 = 0.3605	1154.61 ± 0.45	27.55 ± 4.4
313.15 K, x1 = 0.4662	1160.8 ± 0.66	45.97 ± 7.4
313.15 K, x1 = 0.5583	1164.37 ± 0.9	71.4 ± 11
313.15 K, x1 = 0.6591	1167.05 ± 1.2	115.8 ± 19
313.15 K, x1 = 0.7296	1168.39 ± 1.4	163.1 ± 27
313.15 K, x1 = 0.8133	1169.71 ± 1.8	242.2 ± 41
313.15 K, x1 = 1	1171.79 ± 2.6	549.9 ± 97
318.15 K, x1 = 0.106	1099.61 ± 0.29	3.91 ± 0.63
318.15 K, x1 = 0.1407	1114.5 ± 0.24	5.576 ± 0.89
318.15 K, x1 = 0.2161	1134.17 ± 0.29	10.38 ± 1.7
318.15 K, x1 = 0.2643	1141.75 ± 0.33	14.03 ± 2.2
318.15 K, x1 = 0.3605	1151.3 ± 0.44	22.7 ± 3.6
318.15 K, x1 = 0.4662	1157.58 ± 0.66	37.27 ± 6
318.15 K, x1 = 0.5583	1161.21 ± 0.89	56.71 ± 9.1
318.15 K, x1 = 0.6591	1163.94 ± 1.2	89.86 ± 14
318.15 K, x1 = 0.7296	1165.32 ± 1.4	123.9 ± 20
318.15 K, x1 = 0.8133	1166.53 ± 1.8	171.1 ± 28
318.15 K, x1 = 1	1168.85 ± 2.6	391.8 ± 68
323.15 K, x1 = 0.106	1096.14 ± 0.29	3.415 ± 0.55
323.15 K, x1 = 0.1407	1110.96 ± 0.24	4.818 ± 0.77
323.15 K, x1 = 0.2161	1130.66 ± 0.28	8.774 ± 1.4
323.15 K, x1 = 0.2643	1138.31 ± 0.32	11.77 ± 1.9
323.15 K, x1 = 0.3605	1147.97 ± 0.44	18.73 ± 3
323.15 K, x1 = 0.4662	1154.35 ± 0.65	30.42 ± 4.9
323.15 K, x1 = 0.5583	1158.04 ± 0.89	45.67 ± 7.3
323.15 K, x1 = 0.6591	1160.83 ± 1.2	70.97 ± 11
323.15 K, x1 = 0.7296	1162.25 ± 1.4	92.8 ± 15
323.15 K, x1 = 0.8133	1163.48 ± 1.8	130.8 ± 21
323.15 K, x1 = 1	1165.73 ± 2.6	285.8 ± 48
328.15 K, x1 = 0.106	1092.63 ± 0.29	3.006 ± 0.48
328.15 K, x1 = 0.1407	1107.4 ± 0.24	4.206 ± 0.67
328.15 K, x1 = 0.2161	1127.13 ± 0.28	7.538 ± 1.2
328.15 K, x1 = 0.2643	1134.87 ± 0.32	10.13 ± 1.6
328.15 K, x1 = 0.3605	1144.63 ± 0.44	15.77 ± 2.5
328.15 K, x1 = 0.4662	1151.12 ± 0.65	25.37 ± 4.1
328.15 K, x1 = 0.5583	1154.87 ± 0.88	37.45 ± 6
328.15 K, x1 = 0.6591	1157.71 ± 1.2	56.75 ± 9.1
328.15 K, x1 = 0.7296	1159.16 ± 1.4	73.46 ± 12
328.15 K, x1 = 0.8133	1160.43 ± 1.8	101.6 ± 16
328.15 K, x1 = 1	1162.62 ± 2.6	212.6 ± 35
333.15 K, x1 = 0.106	1089.08 ± 0.29	2.667 ± 0.43
333.15 K, x1 = 0.1407	1103.8 ± 0.24	3.7 ± 0.59
333.15 K, x1 = 0.2161	1123.62 ± 0.28	6.103 ± 0.98
333.15 K, x1 = 0.2643	1131.4 ± 0.32	8.625 ± 1.4
333.15 K, x1 = 0.3605	1141.31 ± 0.44	13.48 ± 2.2
333.15 K, x1 = 0.4662	1147.88 ± 0.64	21.32 ± 3.4
333.15 K, x1 = 0.5583	1151.7 ± 0.88	–
333.15 K, x1 = 0.6591	1154.59 ± 1.2	44.89 ± 7.2
333.15 K, x1 = 0.7296	1156.08 ± 1.4	58.82 ± 9.4
333.15 K, x1 = 0.8133	1157.38 ± 1.7	80.45 ± 13
333.15 K, x1 = 1	1159.54 ± 2.6	162.5 ± 27
338.15 K, x1 = 0.106	1085.5 ± 0.29	2.383 ± 0.38
338.15 K, x1 = 0.1407	1100.19 ± 0.24	3.278 ± 0.53
338.15 K, x1 = 0.2161	1120.07 ± 0.28	4.937 ± 0.79
338.15 K, x1 = 0.2643	1127.93 ± 0.32	7.493 ± 1.2
338.15 K, x1 = 0.3605	1137.96 ± 0.43	11.57 ± 1.9
338.15 K, x1 = 0.4662	1144.64 ± 0.64	18.19 ± 2.9
338.15 K, x1 = 0.5583	1148.52 ± 0.87	26.14 ± 4.2
338.15 K, x1 = 0.6591	1151.47 ± 1.2	37.58 ± 6
338.15 K, x1 = 0.7296	1152.99 ± 1.4	47.7 ± 7.7
338.15 K, x1 = 0.8133	1154.33 ± 1.7	64.86 ± 10
338.15 K, x1 = 1	1156.56 ± 2.6	126.1 ± 21
343.15 K, x1 = 0.106	1081.88 ± 0.29	2.143 ± 0.34
343.15 K, x1 = 0.1407	1096.54 ± 0.24	2.926 ± 0.47
343.15 K, x1 = 0.2161	1116.49 ± 0.28	4.099 ± 0.66
343.15 K, x1 = 0.2643	1124.44 ± 0.32	6.755 ± 1.1
343.15 K, x1 = 0.3605	1134.62 ± 0.43	10.06 ± 1.6
343.15 K, x1 = 0.4662	1141.4 ± 0.63	15.53 ± 2.5
343.15 K, x1 = 0.5583	1145.35 ± 0.87	22.23 ± 3.6
343.15 K, x1 = 0.6591	1148.36 ± 1.2	32.44 ± 5.2
343.15 K, x1 = 0.7296	1149.91 ± 1.4	40.29 ± 6.5
343.15 K, x1 = 0.8133	1151.31 ± 1.7	53 ± 8.5
343.15 K, x1 = 1	1153.58 ± 2.6	99.87 ± 16
